Experimental data: patent US9580379B2, “Xanthine oxidase inhibitors and methods of use” (Baylor College of Medicine, priority 2014, dated 2017)

Assays:
[1] = Peroxynitrite scavenging assay; details: 25 μM ONOO−, pH 7.4 (FIG. 7C)
Protocol: Peroxynitrite scavenging assay—Peroxynitrite (ONOO—) was generated by mixing 5 mL acidic solution (0.6 M HCl) of H2O2 (0.7 M) and 5 mL of 0.6 M KNO2 in an ice bath for 1 second and the reaction was quenched with 5 mL of ice-cold 1.2 M NaOH. Residual H2O2 was removed using granular MnO2 prewashed with 1.2 M NaOH and the reaction mixture was then left overnight at −20° C. Concentrations of ONOO^− were determined before each experiment at 302 nm using a molar extinction coefficient of 1,670 M^−1 cm^−1. The final concentrations of reagents used in the assay are as follows: 25 μM ONOO^−, 10 μM DTPA, 5 μM DHR 123, 0.1 M phosphate buffer, pH 7.4. The ONOO^− scavenging assay was performed by monitoring the oxidation of dihydrorhodamine (DHR 123) by ONOO^− spectrophotometrically at 500 nm. […] Vitamin C was used as a positive control. The concentration dependent effects of these compounds on ONOO^− scavenging were also studied and compared with that of vitamins C and E (FIG. 10).

[2] = tested on: C57BL/6 mice
Description: Each mouse was monitored for general health conditions on a daily basis for 28 days, including examination of mortality, body weights, and behavior of the mice.

[3] = biological target: xanthine oxidase (Bos taurus, UniProt P80457); details: for ability to inhibit XO at a concentration of 20 μM: compared with allopurinol (FIG. 2); for time course of XO inhibition: XO (20 nM) added to xanthine (50 μM) and inhibitor (6.67 μM) to start the reaction; for influence of pre-incubation with XO on XO inhibition: pre-incubation with XO 0 to 5 min at 25° C.; for XO activity after pre-incubation with inhibitor for 20 h: room temperature, DNSA 5 μM or 10 μM;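 on all read-outs here: xanthine oxidase activity read as the initial rate of uric acid production, with water serving as the negative control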
[4] = biological target: T1, XO (Bos taurus, UniProt P80457); experiment: Conversion of DHNB to products by XO / reaction of XO and DHNB; format: biochemical, bovine; details: for conversion of inhibitor by XO after 20 h: pre-incubation with XO for 20 h
T1 construct: Xanthine oxidase from bovine milk; purchased Sigma Chemical Co. (St. Louis, Mo.); host or cells: bovine milk
Protocol: Negative electrospray ionization-mass spectrometry (ESI-MS) and tandem (MSMS) were applied to detect and confirm the reaction products of DHNB with XO. All mass spectrometric experiments were performed on an API 3200-Qtrap triple quadrupole mass spectrometer (Applied Biosystem/MDS SCIEX; Foster City, Calif.) equipped with a TurbolonSpray™ source. The main working parameters for mass spectrum were set as follows: ion-spray voltage, −4.5 kV; ion source temperature, 600° C.; gas 1, 40 psi; gas 2, 40 psi; curtain gas, 20 psi; collision gas, high.
After that, the enzymatic activity of XO was recovered.

[5] = tested on: allantoxanamide induced hyperuricemic mice; experiment: Hypouricemic effect in allantoxanamide induced hyperuricemic mice; format: in vivo; details: for serum urate levels: 100 mg/kg oral before allantoxanamide injection
Protocol: A hyperuricemia mouse model was used. Allantoxanamide, a potent uricase inhibitor, was used to induce hyperuricemia in mice in this study. […] The mice were subsequently intraperitoneally injected with allantoxanamide at 200 mg/kg in 0.5% CMC-Na in a volume of 0.1 ml/10 g mouse body weight just after the tested drug oral administration to increase the serum uric acid level. […] The negative control mice were administered PEG400 only followed by i.p. allantoxanamide. The normal group mice were administered PEG400 only followed by i.p. CMC-Na only. Food and water were withheld overnight prior to the study. Whole blood samples were collected from mice through orbital vein bleeding at the end of the study. The mice were anaesthetized with diethyl ether inside a chamber. The blood was allowed to clot for 1 h at room temperature and then centrifuged at 2350×g for 4 min to obtain the serum. The serum was kept on ice and assayed immediately. Serum uric acid was determined with the phosphotungstate method, as known to those of skill in the art.

[6] = DPPH scavenging assay; details: 20 μM compound, 100 μM DPPH, compared with vitamin C
Protocol: DPPH scavenging assay—The abilities of the polyphenols described herein to scavenge the DPPH radical were measured optically by monitoring the decreases of their absorptions at […]. […] DPPH was used at a concentration of 100 μM. Their scavenging activities were compared with that of vitamin C.

[7] = HOCl scavenging assay; details: 20 μM, compared with vitamin C
Protocol: HOCl scavenging assay—HOCl was prepared immediately before use by adjusting the pH of a 1% (v/v) solution of NaOCl to pH 6.2 with 0.6 M sulfuric acid. The concentration was further determined spectrophotometrically at 235 nm using the molar extinction coefficient of 100 M^−1 cm^−1. 5-Thio-2-nitrobenzoic acid (TNB) was prepared by reducing 5,5′-dithio-bis(2-nitrobenzoic acid) (DTNB) with sodium borohydride in phosphate buffer. The final concentrations of reagents used in the assay are as follows: 25 μM HOCl, 70 μM TNB, 0 to 200 μM antioxidants, phosphate buffer, 50 mM, pH 6.6. The HOCl scavenging assay was based on the inhibition of TNB oxidation to DTNB induced by HOCl.

[8] = tested on: mouse; details: oral administration once; cited from earlier work
[9] = Superoxide scavenging assay (xanthine-xanthine oxidase system, NBT reduction); details: 20 μM
Protocol: Superoxide scavenging assay—Superoxide (O2^−•) scavenging activity was assayed in the xanthine-xanthine oxidase system and determined by the inhibition of the reduction of nitro blue tetrazolium (NBT) to form blue formazan which has an absorption at 560 nm. The final concentrations of reagents used in the assay are as follows: 16.8 mU xanthine oxidase, 25 μM xanthine, 50 μM NBT, and 0.1 M phosphate buffer (pH 8.5). […] The abilities of polyphenols to scavenge O2^−• were compared with that of GSH.

Sequence of xanthine oxidase (P80457 whole entry): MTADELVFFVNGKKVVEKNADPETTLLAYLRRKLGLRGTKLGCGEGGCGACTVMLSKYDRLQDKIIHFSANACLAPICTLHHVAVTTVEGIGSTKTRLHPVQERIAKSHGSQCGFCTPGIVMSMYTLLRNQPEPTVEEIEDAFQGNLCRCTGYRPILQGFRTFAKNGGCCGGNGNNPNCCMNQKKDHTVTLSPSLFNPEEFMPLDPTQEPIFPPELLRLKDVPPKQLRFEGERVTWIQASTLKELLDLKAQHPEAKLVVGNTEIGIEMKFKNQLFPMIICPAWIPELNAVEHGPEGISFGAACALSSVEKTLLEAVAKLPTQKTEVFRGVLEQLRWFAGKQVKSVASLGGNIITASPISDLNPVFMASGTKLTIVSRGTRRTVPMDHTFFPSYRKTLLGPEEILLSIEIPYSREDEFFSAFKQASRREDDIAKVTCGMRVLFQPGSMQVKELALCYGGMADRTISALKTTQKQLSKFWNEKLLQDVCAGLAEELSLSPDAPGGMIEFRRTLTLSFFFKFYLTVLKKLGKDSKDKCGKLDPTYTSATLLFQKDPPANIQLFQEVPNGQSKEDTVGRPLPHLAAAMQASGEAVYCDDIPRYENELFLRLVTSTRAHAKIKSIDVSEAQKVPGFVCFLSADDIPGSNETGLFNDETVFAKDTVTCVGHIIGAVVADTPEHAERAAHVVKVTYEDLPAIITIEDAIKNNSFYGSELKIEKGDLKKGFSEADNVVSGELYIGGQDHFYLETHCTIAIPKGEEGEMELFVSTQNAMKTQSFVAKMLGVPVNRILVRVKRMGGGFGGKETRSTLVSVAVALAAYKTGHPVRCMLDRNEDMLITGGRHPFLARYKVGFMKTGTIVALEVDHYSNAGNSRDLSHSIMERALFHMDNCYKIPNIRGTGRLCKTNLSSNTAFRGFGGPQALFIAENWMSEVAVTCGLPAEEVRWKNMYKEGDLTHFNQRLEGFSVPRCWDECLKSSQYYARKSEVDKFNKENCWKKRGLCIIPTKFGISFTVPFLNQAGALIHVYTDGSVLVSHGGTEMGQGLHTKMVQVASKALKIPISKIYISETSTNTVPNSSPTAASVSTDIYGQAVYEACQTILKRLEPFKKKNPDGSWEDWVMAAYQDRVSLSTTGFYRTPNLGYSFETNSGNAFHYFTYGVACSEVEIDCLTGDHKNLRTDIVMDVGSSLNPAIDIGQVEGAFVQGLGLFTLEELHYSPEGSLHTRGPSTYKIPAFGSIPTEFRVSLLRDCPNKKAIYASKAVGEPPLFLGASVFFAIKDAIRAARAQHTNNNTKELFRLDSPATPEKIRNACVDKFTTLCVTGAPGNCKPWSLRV
T1 sequence (P80457 whole entry): as above

O=Cc1cc(O)c(O)c([N+](=O)[O-])c1 [DHNB, 3,4-Dihydroxy-5-nitrobenzaldehyde]
scavenging effect on ONOO− [1]: strong scavenging effect on ONOO^−
hair loss of pups of treated mice ([2]; mouse, in vivo): not observed
histology analysis for the liver, kidney, and heart versus control mice ([2]; mouse, in vivo): did not show any difference
IC50 [3]: 3 µM
pH dependence of XO inhibition [3]: neutral or slightly acidic solutions benefit the inhibition
ability to inhibit XO at a concentration of 20 μM [3]: had inhibitory effects on XO
time course of XO inhibition [3]: time-dependent inhibition
Dixon plot, steady-state kinetic study of XO inhibition ([3]; concentration of DHNB fixed, increasing xanthine, 1 min pre-incubation): initial rates did not change with increasing xanthine concentrations
influence of pre-incubation with XO on XO inhibition ([3]; then 50 μM xanthine): significantly increased the inhibition
XO activity after pre-incubation with inhibitor for 20 h [3]: XO activity was recovered
reversibility of XO inhibition ([3]; tested condition): irreversible XO inhibitor
duration of inhibition of XO activity ([4]; 30 μM DHNB with 15 mU/ml (30 nM) XO, phosphate buffer pH 7.4): up to 20 h
decay rate of DHNB with XO ([4]; 30 μM DHNB, 30 nM XO, phosphate buffer, pH dependent (higher pH faster), absorption at 327 nm): ~10^−10 mol/L/s
conversion of inhibitor by XO after 20 h [4]: converted to DHNB-COOH completely
stability without XO ([4]; without XO): very stable
serum urate levels ([5]; in 2 hours): significantly lowered
serum urate levels ([5]; in 4 hours): just slightly higher than the normal level
DPPH scavenging effect [6]: as strong of a DPPH scavenging effect as vitamin C
HOCl scavenging effect [7]: moderate scavenging effect
lowest published lethal dose [8]: 312 mg/kg

O=C(O)c1cc(O)c(O)c(O)c1 [gallic acid, reference compound]
scavenging effect on ONOO− [1]: strong scavenging effect on ONOO^−
ability to inhibit XO at a concentration of 20 μM [3]: no effect on XO
influence of pre-incubation with XO on XO inhibition ([3]; then 50 μM xanthine): did not show any inhibitory effect

NC(=O)c1nc(=O)[nH]c(=O)[nH]1 [allantoxanamide]
serum urate level ([5]; 1 h after 200 mg/kg allantoxanamide i.p., normal mice 2 mg/dl): 5.4 mg/dL
serum urate level ([5]; 2 h after 200 mg/kg allantoxanamide i.p.): 9.5 mg/dL
serum urate level ([5]; 3 h after 200 mg/kg allantoxanamide i.p.): 13.3 mg/dL
serum urate level ([5]; 4 h after 200 mg/kg allantoxanamide i.p.): 16.4 mg/dL

Oc1ncnc2[nH]ncc12 [allopurinol]
pups of surviving mice that died in two days ([2]; 500 mg/kg, total 19 pups): eight
mice died within 3 days ([2]; C57BL/6, mouse, in vivo): 5
hair loss of pups of treated mice ([2]; mouse, in vivo): lost most of the back hair
time course of XO inhibition [3]: time-dependent inhibition
serum urate level ([5]; same condition as DHNB (100 mg/kg oral before allantoxanamide)): significantly lowered the serum urate level close to the normal level
DPPH scavenging effect [6]: no scavenging effect on DPPH

O=[N+]([O-])c1cc(CO)cc(O)c1O [DHNB-CH2OH, reference compound]
ability to inhibit XO at a concentration of 20 μM [3]: no effect on XO
influence of pre-incubation with XO on XO inhibition ([3]; then 50 μM xanthine): did not show any inhibitory effect

O=Cc1cc([N+](=O)[O-])cc([N+](=O)[O-])c1O [DNSA, 3,5-dinitrosalicylaldehyde]
influence of pre-incubation of DNSA with XO on XO activity ([3]; 20 nM XO and 20 μM DNSA pre-incubated 0-10 min, then 50 μM xanthine, steady-state rate): strongly inhibited XO activity
XO activity after pre-incubation with inhibitor for 20 h [3]: no XO activity at all
conversion of inhibitor by XO after 20 h [4]: not converted

O=C(O)c1ccc(O)c(O)c1 [DHB-COOH, 3,4-dihydroxybenzoic acid, reference compound]
ability to inhibit XO at a concentration of 20 μM [3]: no effect on XO
influence of pre-incubation with XO on XO inhibition ([3]; then 50 μM xanthine): did not show any inhibitory effect

COc1cc(C=O)ccc1O [Vanillin, reference compound]
ability to inhibit XO at a concentration of 20 μM [3]: no inhibition on XO activity
influence of pre-incubation with XO on XO inhibition ([3]; then 50 μM xanthine): did not show any inhibitory effect

O.O=Cc1cc(O)c(O)c(O)c1 [THB-CHO, 3,4,5-trihydroxybenzaldehyde hydrate]
scavenging effect on ONOO− [1]: strong scavenging effect on ONOO^−
IC50 value, inhibition of XO activity ([3]; 20 nM XO, 50 μM xanthine, phosphate buffer pH 7.4, 25° C., initial rate of uric acid formation): too high to determine
ability to inhibit XO at a concentration of 20 μM [3]: had inhibitory effects on XO
influence of pre-incubation with XO on XO inhibition ([3]; then 50 μM xanthine): pre-incubation also affected the XO inhibition
scavenging effect on superoxide [9]: strong scavenging effects on superoxide
DPPH scavenging effect [6]: as strong of a DPPH scavenging effect as vitamin C
HOCl scavenging effect [7]: stronger HOCl scavenging effect than that of vitamin C

O=Cc1cc(O)c(O)cc1[N+](=O)[O-] [DH6NB, 3,4-Dihydroxy-6-nitrobenzaldehyde]
scavenging effect on ONOO− [1]: strong scavenging effect on ONOO^−
IC50 [3]: 96 µM
ability to inhibit XO at a concentration of 20 μM [3]: had inhibitory effects on XO
influence of pre-incubation with XO on XO inhibition ([3]; then 50 μM xanthine): pre-incubation also affected the XO inhibition
DPPH scavenging effect [6]: as strong of a DPPH scavenging effect as vitamin C
HOCl scavenging effect [7]: weak scavenging effect on HOCl

O=Cc1ccc(O)c(O)c1 [DHB-CHO, 3,4-dihydroxybenzaldehyde]
scavenging effect on ONOO− [1]: strong scavenging effect on ONOO^−
concentration and pre-incubation time dependence of XO inhibition [3]: not concentration dependent but instead was pre-incubation time dependent
ability to inhibit XO at a concentration of 20 μM [3]: had inhibitory effects on XO
influence of pre-incubation with XO on XO inhibition ([3]; then 50 μM xanthine): pre-incubation also affected the XO inhibition
DPPH scavenging effect [6]: as strong of a DPPH scavenging effect as vitamin C
HOCl scavenging effect [7]: weak scavenging effect on HOCl

O=C(O)c1cc(O)c(O)c([N+](=O)[O-])c1 [3,4-dihydroxy-5-nitrobenzoic acid]
inhibitory effect on XO of the product of DHNB conversion ([4]; room temperature): no inhibitory effect on XO

COc1ccc(CO)cc1OC [DMB-CH2OH, 3,4-dimethoxybenzyl alcohol, reference compound]
ability to inhibit XO at a concentration of 20 μM [3]: no effect on XO
influence of pre-incubation with XO on XO inhibition ([3]; then 50 μM xanthine): did not show any inhibitory effect

O=C(O)/C=C/c1ccc(O)c(O)c1 [caffeic acid, reference compound]
scavenging effect on ONOO− [1]: strong scavenging effect on ONOO^−
